Data as given in patent US11701354B2, “Pyrazolo[3,4-b]pyrazine derivatives as SHP2 phosphatase inhibitors” (Relay Therapeutics, Inc., priority 2017, dated 2023).

target: SHP2 (Homo sapiens (Human), UniProt Q06124); experiment: SHP2 Allosteric Inhibition Assay (DiFMUP prompt fluorescence); assay type: biochemical; settings: 0.25 nM SHP2 activated with 0.5 μM peptide IRS1_pY1172(dPEG8)pY1222; substrate DiFMUP 100 μM
Description: SHP2 Allosteric Inhibition Assay.
SHP2 is allosterically activated through binding of bis-tyrosyl-phorphorylated peptides to its Src Homology 2 (SH2) domains. The latter activation step leads to the release of the auto-inhibitory interface of SHP2, which in turn renders the SHP2 protein tyrosine phosphatase (PTP) active and available for substrate recognition and reaction catalysis. The catalytic activity of SHP2 was monitored using the surrogate substrate DiFMUP in a prompt fluorescence assay format.
More specifically, the phosphatase reactions were performed at room temperature in 96-well black polystyrene plate, flat bottom, low flange, non-binding surface (Corning, Cat #3575) using a final reaction volume of 50 μl and the following assay buffer conditions: 60 mM HEPES, pH 7.2, 75 mM NaCl, 75 mM KCl, 1 mM EDTA 0.005% Brij-35, 5 mM DTT.
The inhibition of SHP2 by compounds of the disclosure (concentrations varying from 0.003-100 μM) was monitored using an assay in which 0.25 nM of SHP2 was incubated with of 0.5 μM of peptide IRSl_pY1172(dPEG8)pY1222 (sequence: H2N-LN(pY)IDLDLV(dPEG8)LST(pY)ASINFQK-amide). After 30-60 minutes incubation at 25° C. the surrogate substrate DiFMUP (Invitrogen, cat #D6567, 100 μM final) was added to the reaction and the conversion of DiFMUP to 6,8-difluoro-7-hydroxyl-4-methylcoumarin (DiFMU) was monitored continuously for 10 minutes with excitation at 355 nm and emission at 460 nm using a microplate reader (PolarStar, BMG). The inhibitor dose response curves were analyzed using normalized IC50 regression curve fitting with control based normalization.
Biochemical assay results for compounds of the disclosure are shown in examples and Table 1. In Table 1, A means an IC50 of less than 1 μM: B means an IC50 equal to 1 μM but less than 10 μM; and C means an IC50 of 10 μM or more.

Row | SMILES | IC50 [µM]
1 | N[C@@H]1CCCC[C@H]1Nc1cnc2c(-c3cccc(Cl)c3F)n[nH]c2n1 (mixture of isomers) [Example 5] | 1 to 10
2 | NC[C@H]1CCCC[C@H]1Nc1cnc2c(-c3cccc(Cl)c3F)n[nH]c2n1 (mixture of isomers) [Example 13] | < 1
3 | NC[C@H]1CCCC[C@@H]1Nc1cnc2c(-c3cccc(Cl)c3F)n[nH]c2n1 (mixture of isomers) [Example 14] | < 1
4 | CN(c1cnc2c(-c3cccc(Cl)c3F)n[nH]c2n1)[C@H]1CCCC[C@@H]1N (mixture of isomers) [Example 19] | < 1
5 | CN(c1cnc2c(-c3cccc(Cl)c3F)n[nH]c2n1)[C@H]1CCCC[C@H]1N (mixture of isomers) [Example 20] | < 1
6 | N[C@@H]1CCCC[C@@H]1Nc1cnc2c(-c3cccc(Cl)c3F)n[nH]c2n1 (single isomer, unassigned) [Example 7] | 1 to 10
7 | CN(c1cnc2c(N3CCCc4ncccc43)n[nH]c2n1)[C@@H]1CCC[C@@H]1N (single isomer, unassigned) [Example 8] | 1 to 10
8 | CN(c1cnc2c(N3CCCc4ncccc43)n[nH]c2n1)[C@@H]1COC[C@@H]1N (single isomer, unassigned) [Example 10] | ≥ 10
9 | CN(c1cnc2c(N3CCCc4ncccc43)n[nH]c2n1)[C@H]1COC[C@H]1N (single isomer, unassigned) [Example 11] | ≥ 10
10 | NC[C@@H]1CCCC[C@@H]1Nc1cnc2c(-c3cccc(Cl)c3F)n[nH]c2n1 (single isomer, unassigned) [Example 15] | < 1
11 | NC[C@H]1CCCC[C@H]1Nc1cnc2c(-c3cccc(Cl)c3F)n[nH]c2n1 (single isomer, unassigned) [Example 17] | 1 to 10
12 | NC[C@@H]1CCCC[C@H]1Nc1cnc2c(-c3cccc(Cl)c3F)n[nH]c2n1 (single isomer, unassigned) [Example 18] | 1 to 10
13 | CN(C[C@@H]1CCC[C@H]1N)c1cnc2c(N3CCCc4ncccc43)n[nH]c2n1 (single isomer, unassigned) [Example 31] | ≥ 10
14 | CN(C[C@H]1CCC[C@@H]1N)c1cnc2c(N3CCCc4ncccc43)n[nH]c2n1 (single isomer, unassigned) [Example 32] | ≥ 10
15 | CN(c1cnc2c(N3CCCc4ncccc43)n[nH]c2n1)[C@@H]1CCCC[C@@H]1N (single isomer, unassigned) [Example 34] | 1 to 10
16 | N[C@H]1CCCC[C@@H]1Nc1cnc2c(-c3cccc(Cl)c3F)n[nH]c2n1 [Example 6] | 1 to 10
17 | CN(c1cnc2c(N3CCCc4ncccc43)n[nH]c2n1)[C@H]1CCC[C@H]1N [Example 9] | ≥ 10
18 | CN(C[C@H]1CC[C@H](N)C1)c1cnc2c(-c3cccc(Cl)c3F)n[nH]c2n1 [Example 25] | < 1
19 | CN(c1cnc2c(-c3ccnc(Cl)c3F)n[nH]c2n1)[C@@H]1CCCC[C@@H]1N [Example 30] | < 1
20 | CN(c1cnc2c(N3CCCc4ncccc43)n[nH]c2n1)[C@H]1CCCC[C@H]1N [Example 33] | ≥ 10
21 | CN(c1cnc2c(N3CCCc4ncccc43)n[nH]c2n1)[C@@H]1COCC[C@@H]1N [Example 35] | ≥ 10
22 | CN(c1cnc2c(N3CCCc4ncccc43)n[nH]c2n1)[C@@H]1CCOC[C@@H]1N [Example 36] | 1 to 10
23 | CN(c1cnc2c(N3CCCc4ncccc43)n[nH]c2n1)[C@H]1CCOC[C@H]1N [Example 37] | ≥ 10
24 | CN(c1cnc2c(Sc3ccccc3Cl)n[nH]c2n1)[C@@H]1CCCC[C@@H]1N [Example 42] | < 1
25 | CN(c1cnc2c(Sc3ccnc4[nH]ccc34)n[nH]c2n1)[C@@H]1CCCC[C@@H]1N [Example 43] | < 1
26 | CN(c1cnc2c(Oc3ccnc(Cl)c3Cl)n[nH]c2n1)[C@H]1CCCC[C@H]1N [Example 44] | 1 to 10
27 | CN(c1cnc2c(Oc3ccnc(Cl)c3Cl)n[nH]c2n1)[C@@H]1CCCC[C@@H]1N [Example 45] | < 1
28 | CN(c1cnc2c(N3CCc4c(C(N)=O)cccc43)n[nH]c2n1)[C@@H]1CCCC[C@@H]1N [Example 46] | < 1

The next lines start with the values.

Row | IC50 [µM] | SMILES
29 | 1 to 10 | CN(c1cnc2c(-c3cccc(Cl)c3F)n[nH]c2n1)[C@H]1CCC[C@H]1N (mixture of isomers) [Example 1]
30 | 1 to 10 | CN(c1cnc2c(-c3cccc(Cl)c3F)n[nH]c2n1)[C@H]1CCCC[C@@H]1N (single isomer, unassigned) [Example 23]
31 | < 1 | CN(c1cnc2c(-c3cccc(Cl)c3F)n[nH]c2n1)[C@@H]1CCCC[C@H]1N (single isomer, unassigned) [Example 24]
32 | < 1 | CN(c1cnc2c(-c3cccc(Cl)c3F)n[nH]c2n1)[C@@H]1CCC[C@@H]1CN (single isomer, unassigned) [Example 26]
33 | < 1 | CN(c1cnc2c(-c3cccc(Cl)c3F)n[nH]c2n1)[C@H]1CCC[C@@H]1CN (single isomer, unassigned) [Example 27]
34 | < 1 | CN(c1cnc2c(-c3cccc(Cl)c3F)n[nH]c2n1)[C@H]1CCC[C@H]1CN (single isomer, unassigned) [Example 28]
35 | < 1 | CN(c1cnc2c(-c3cccc(Cl)c3F)n[nH]c2n1)[C@@H]1CCC[C@H]1CN (single isomer, unassigned) [Example 29]
36 | < 1 | CN(c1cnc2c(-c3cccc(Cl)c3F)n[nH]c2n1)[C@@H]1CCC[C@H]1N [Example 2]
37 | < 1 | CN(c1cnc2c(-c3cccc(Cl)c3F)n[nH]c2n1)[C@H]1CCC[C@@H]1N [Example 3]
38 | < 1 | CN(c1cnc2c(-c3cccc(Cl)c3F)n[nH]c2n1)[C@@H]1CCC[C@@H]1N [Example 4]
39 | < 1 | CN(c1cnc2c(-c3cccc(Cl)c3F)n[nH]c2n1)[C@@H]1CCCC[C@@H]1N [Example 21]
40 | < 1 | CN(c1cnc2c(-c3cccc(Cl)c3F)n[nH]c2n1)[C@@H]1CCCC[C@H]1CN [Example 38]
41 | < 1 | CN(c1cnc2c(-c3cccc(Cl)c3F)n[nH]c2n1)[C@H]1CCCC[C@H]1CN [Example 39]
42 | < 1 | CN(c1cnc2c(-c3cccc(Cl)c3F)n[nH]c2n1)[C@H]1CCCC[C@@H]1CN [Example 40]
43 | < 1 | CN(c1cnc2c(-c3cccc(Cl)c3F)n[nH]c2n1)[C@@H]1CCCC[C@@H]1CN [Example 41]
